Three compounds from PubChem BioAssay (NCI) can be followed below.

In test [1] the test system is SN12K1 renal. Description: NCI tumour cell line growth inhibition, 48 h.
In test [2] the test system is P388/ADR leukemia. Description: NCI tumour cell line growth inhibition, 48 h.

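Method: 48-hour compound exposure of cells in 96-well plates, five concentrations, linear interpolation of endpoints. At the TGI there is no net growth.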 A value given as a limit tells only on which side of the number the result lay.

Take `O=c1oc2cc(O)ccc2c2oc3cc(O)ccc3c12`: the results for the TGI in test [1] and in test [2] were above 112 µM and above 125 µM, respectively.
The corresponding values for `O=C1CCCCN1` are above 1120 µM and above 1120 µM.
`CN1c2c(nc(N)[nH]c2=O)NCC1CCNc1ccc(C(=O)NC(CCC(=O)O)C(=O)O)cc1` (stereo unspecified): the TGI in test [1] is 1810 µM; in test [2] it was 1410 µM.
